In PubChem BioAssay (NCI):
Several values for one entry are separate records, joined by “and”; a condition that tells them apart may be missing. Identical values can stand only once.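 Growth conditions: 96-well plates. Treatment: test compound, 48 hours, 5 concentrations. Analysis: linear interpolation between bracketing concentrations; unreached endpoints set to highest concentration. GI50: concentration for 50% inhibition of growth. The concentration for full growth arrest is given as TGI.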

Experiments:
Assay in all cases: DTP human tumour cell line panel, 48 h
NCI/ADR-RES ovarian = system: NCI/ADR-RES ovarian
ACHN renal = system: ACHN renal
OVCAR-3 ovarian = system: OVCAR-3 ovarian
SW-620 colon = system: SW-620 colon
RPMI-8226 leukemia = system: RPMI-8226 leukemia
TK-10 renal = system: TK-10 renal

COc1ccc(/C=N/n2c(C)n[nH]c2=O)c(OC)c1
TGI (NCI/ADR-RES ovarian): > 100 µM
TGI (ACHN renal): > 100 µM
TGI (OVCAR-3 ovarian): > 100 µM
TGI (SW-620 colon): > 100 µM
TGI (RPMI-8226 leukemia): > 100 µM

COc1c(=O)cc2cc[nH]c3ccn(C)c1c23
TGI (NCI/ADR-RES ovarian): > 100 µM
TGI (ACHN renal): > 100 µM
TGI (OVCAR-3 ovarian): > 100 µM
TGI (SW-620 colon): > 100 µM
TGI (TK-10 renal): > 100 µM
TGI (RPMI-8226 leukemia): > 100 µM

O=[N+]([O-])c1ccc(C(=S)Nc2ccccc2)o1
TGI (NCI/ADR-RES ovarian): 9.4 µM
TGI (ACHN renal): 6.66 µM
TGI (OVCAR-3 ovarian): 6.38 µM
TGI (SW-620 colon): 3.82 µM
TGI (TK-10 renal): 14.1 µM
TGI (RPMI-8226 leukemia): 4.9 µM

COc1ccc(/C(Br)=C2\OC(=O)c3ccccc32)cc1
TGI (NCI/ADR-RES ovarian): > 10 µM
TGI (ACHN renal): > 10 µM
TGI (OVCAR-3 ovarian): > 10 µM
TGI (SW-620 colon): > 10 µM
TGI (TK-10 renal): > 10 µM
TGI (RPMI-8226 leukemia): > 10 µM

CCOC(=O)C1(F)S(=O)(=O)OCCOS1(=O)=O
TGI (NCI/ADR-RES ovarian): > 100 µM
TGI (ACHN renal): > 100 µM
TGI (OVCAR-3 ovarian): > 100 µM
TGI (SW-620 colon): > 100 µM
TGI (TK-10 renal): > 100 µM
TGI (RPMI-8226 leukemia): > 100 µM

N#Cc1c2c(c(N)oc1=O)C(c1ccccc1)CC(=O)N2 (stereo not drawn)
TGI (NCI/ADR-RES ovarian): > 100 µM
TGI (ACHN renal): > 100 µM
TGI (OVCAR-3 ovarian): > 100 µM
TGI (SW-620 colon): > 100 µM
TGI (TK-10 renal): > 100 µM
TGI (RPMI-8226 leukemia): > 100 µM

Cc1cn(CCCCC2=NCCCN2)c(=O)[nH]c1=O
TGI (NCI/ADR-RES ovarian): > 67.5 µM
TGI (ACHN renal): > 31 µM
TGI (OVCAR-3 ovarian): > 33.1 µM
TGI (SW-620 colon): > 37 µM
TGI (TK-10 renal): > 36.6 µM
TGI (RPMI-8226 leukemia): > 100 µM

C[N+]12C=CC=C1C(N1CCCC1)c1scc(-c3ccccc3)c12 (stereo not drawn)
TGI (NCI/ADR-RES ovarian): > 100 µM
TGI (OVCAR-3 ovarian): 87.8 µM
TGI (SW-620 colon): > 100 µM
TGI (RPMI-8226 leukemia): > 100 µM

CCOC(=O)C1(C(=O)OCC)[C@@H](c2ccccc2)C2=NO[C@@H]3CCC[C@H]1[C@H]23
TGI (NCI/ADR-RES ovarian): > 100 µM
TGI (ACHN renal): > 100 µM
TGI (OVCAR-3 ovarian): > 100 µM
TGI (SW-620 colon): > 100 µM
TGI (TK-10 renal): > 100 µM
TGI (RPMI-8226 leukemia): > 100 µM

CC1CN=C(N(Cc2ccccc2)C(=O)Nc2ccc(Cl)c(Cl)c2)S1 (stereo not drawn)
TGI (NCI/ADR-RES ovarian): > 100 µM
TGI (ACHN renal): 75 µM
TGI (OVCAR-3 ovarian): > 100 µM
TGI (SW-620 colon): > 100 µM
TGI (TK-10 renal): > 100 µM
TGI (RPMI-8226 leukemia): > 100 µM

[N-]=[N+]=NI1OC(=O)c2ccccc21
TGI (NCI/ADR-RES ovarian): > 100 µM
TGI (ACHN renal): > 100 µM
TGI (OVCAR-3 ovarian): > 100 µM
TGI (SW-620 colon): > 100 µM
TGI (TK-10 renal): > 100 µM
TGI (RPMI-8226 leukemia): 65.7 µM

CC(C)(C)C1=CC(C)(n2[nH]c(=O)n(-c3ccccc3)c2=O)C=C(C(C)(C)C)C1=O
TGI (NCI/ADR-RES ovarian): > 100 µM
TGI (ACHN renal): > 100 µM
TGI (SW-620 colon): > 100 µM
TGI (TK-10 renal): > 100 µM
TGI (RPMI-8226 leukemia): > 100 µM

CC1(c2nc3ccccc3[nH]2)CCC(C(=O)O)C(C)(C)O1 (stereo not drawn)
TGI (NCI/ADR-RES ovarian): > 100 µM
TGI (ACHN renal): > 100 µM
TGI (OVCAR-3 ovarian): > 100 µM
TGI (SW-620 colon): > 100 µM
TGI (TK-10 renal): > 100 µM
TGI (RPMI-8226 leukemia): > 100 µM

Clc1cc(Cl)cc(N=C/C=C/Nc2cc(Cl)cc(Cl)c2)c1
TGI (NCI/ADR-RES ovarian): 34.6 µM
TGI (ACHN renal): 44.7 µM
TGI (OVCAR-3 ovarian): 27.7 µM
TGI (SW-620 colon): 37.6 µM
TGI (TK-10 renal): 87 µM
TGI (RPMI-8226 leukemia): 76.9 µM

COc1ccc(OC)c(CNc2ccc(C(=O)O)cc2)c1
TGI (NCI/ADR-RES ovarian): > 100 µM
TGI (ACHN renal): > 100 µM
TGI (OVCAR-3 ovarian): > 100 µM
TGI (SW-620 colon): > 100 µM
TGI (TK-10 renal): > 100 µM
TGI (RPMI-8226 leukemia): > 100 µM

CC1=NN(c2nc(N)nc(/C(C#N)=C\c3csc([N+](=O)[O-])c3)n2)C(C)(C)C1
TGI (NCI/ADR-RES ovarian): 70.3 µM
TGI (ACHN renal): > 100 µM
TGI (OVCAR-3 ovarian): 78.9 µM
TGI (SW-620 colon): > 100 µM
TGI (TK-10 renal): 95.5 µM
TGI (RPMI-8226 leukemia): > 100 µM

NC1CC(=O)c2c1sc(Cl)c2Cl (stereo not drawn)
TGI (NCI/ADR-RES ovarian): > 100 µM
TGI (ACHN renal): > 100 µM
TGI (OVCAR-3 ovarian): > 100 µM
TGI (SW-620 colon): > 100 µM
TGI (TK-10 renal): > 100 µM
TGI (RPMI-8226 leukemia): > 100 µM

CCc1c(C)c(C#N)c(=S)n(C2OC(COC(C)=O)C(OC(C)=O)C(OC(C)=O)C2OC(C)=O)c1-c1ccccc1 (stereo not drawn)
TGI (NCI/ADR-RES ovarian): > 31.6 µM
TGI (ACHN renal): > 31.6 µM
TGI (OVCAR-3 ovarian): > 31.6 µM
TGI (SW-620 colon): > 100 µM
TGI (TK-10 renal): > 31.6 µM
TGI (RPMI-8226 leukemia): > 100 µM

c1ccc2oc(-c3ccc(-c4nc5ccccc5o4)c4c3CC4)nc2c1
TGI (NCI/ADR-RES ovarian): > 100 µM
TGI (ACHN renal): > 100 µM
TGI (OVCAR-3 ovarian): > 100 µM
TGI (SW-620 colon): > 100 µM
TGI (TK-10 renal): > 100 µM
TGI (RPMI-8226 leukemia): > 100 µM

O=c1[nH]nc(Cc2ccccc2)n1C1CCCC1
TGI (NCI/ADR-RES ovarian): > 100 µM
TGI (ACHN renal): > 100 µM
TGI (OVCAR-3 ovarian): > 100 µM
TGI (SW-620 colon): > 100 µM
TGI (TK-10 renal): > 100 µM
TGI (RPMI-8226 leukemia): > 100 µM

CCOC(=O)c1nc2cc(C(F)(F)F)ccc2nc1Nc1ccc(OC)cc1
TGI (NCI/ADR-RES ovarian): > 100 µM
TGI (ACHN renal): > 100 µM
TGI (OVCAR-3 ovarian): > 100 µM
TGI (SW-620 colon): > 100 µM
TGI (TK-10 renal): > 100 µM
TGI (RPMI-8226 leukemia): > 100 µM

O=[N+]([O-])c1ccc(-c2nc3ccc(Cl)cc3[nH]2)cc1
TGI (NCI/ADR-RES ovarian): > 100 µM
TGI (ACHN renal): > 100 µM
TGI (OVCAR-3 ovarian): > 100 µM
TGI (SW-620 colon): > 100 µM
TGI (TK-10 renal): > 100 µM
TGI (RPMI-8226 leukemia): > 100 µM

COC(=O)c1ccc2c(c1)S/C(=C/c1ccc3ccc4cccc5ccc1c3c45)S2
TGI (NCI/ADR-RES ovarian): 76.2 µM
TGI (ACHN renal): > 100 µM
TGI (OVCAR-3 ovarian): 49.3 µM
TGI (SW-620 colon): 76.8 µM
TGI (TK-10 renal): > 100 µM
TGI (RPMI-8226 leukemia): > 100 µM

COc1ccc(N2C(=O)/C(=C\c3cc(OC)c(OC)c(OC)c3)SC2c2ccccc2)cc1 (stereo not drawn)
TGI (NCI/ADR-RES ovarian): > 100 µM
TGI (ACHN renal): > 100 µM
TGI (OVCAR-3 ovarian): > 100 µM
TGI (SW-620 colon): > 100 µM
TGI (TK-10 renal): > 100 µM
TGI (RPMI-8226 leukemia): > 100 µM

NNC(=O)c1c(-c2cccnc2)cnc2ccccc12
TGI (NCI/ADR-RES ovarian): > 100 µM
TGI (ACHN renal): > 100 µM
TGI (OVCAR-3 ovarian): > 100 µM
TGI (SW-620 colon): > 100 µM
TGI (TK-10 renal): > 100 µM
TGI (RPMI-8226 leukemia): > 100 µM

N#Cc1nc(-c2ccco2)oc1N
TGI (NCI/ADR-RES ovarian): > 10 µM
TGI (ACHN renal): > 10 µM
TGI (SW-620 colon): > 10 µM
TGI (TK-10 renal): > 10 µM
TGI (RPMI-8226 leukemia): > 10 µM

O=[N+]([O-])c1ccc(OC2CC3C4C=CC3C2C4)c([N+](=O)[O-])c1 (stereo not drawn)
GI50 (NCI/ADR-RES ovarian): 76.4 µM and > 31.6 µM
TGI (NCI/ADR-RES ovarian): > 100 µM
TGI (ACHN renal): > 100 µM
TGI (OVCAR-3 ovarian): > 100 µM
GI50 (SW-620 colon): > 100 µM
TGI (SW-620 colon): > 100 µM
TGI (TK-10 renal): > 100 µM

N[C@H](C(=O)O)[C@@H]1CC(Br)=NO1
TGI (NCI/ADR-RES ovarian): > 100 µM
TGI (ACHN renal): > 100 µM
TGI (OVCAR-3 ovarian): > 100 µM
TGI (SW-620 colon): > 100 µM
TGI (TK-10 renal): > 100 µM

COC(=O)C(CCSC)NC(=O)CNC(=O)CSc1nnc(COc2ccc(Cl)cc2)n1-c1ccccc1 (stereo not drawn)
TGI (NCI/ADR-RES ovarian): > 100 µM
TGI (ACHN renal): 30.7 µM
TGI (SW-620 colon): 45.3 µM
TGI (TK-10 renal): 31.4 µM
TGI (RPMI-8226 leukemia): 59.7 µM

O=[N+]([O-])c1cccc2nc3ccccc3c(NCCCNc3c4ccccc4nc4cccc([N+](=O)[O-])c34)c12
TGI (NCI/ADR-RES ovarian): 1.19 µM
TGI (ACHN renal): 0.0135 µM
TGI (OVCAR-3 ovarian): 0.0906 µM
TGI (SW-620 colon): > 100 µM
TGI (TK-10 renal): < 0.01 µM

CCOC(=O)CNC(=O)C(CSC(=O)N(O)c1ccc(Cl)cc1)NC(=O)CCC(N)C(=O)OCC (stereo not drawn)
TGI (NCI/ADR-RES ovarian): > 50 µM
TGI (ACHN renal): > 50 µM
TGI (OVCAR-3 ovarian): > 50 µM
TGI (SW-620 colon): > 50 µM
TGI (RPMI-8226 leukemia): 46 µM
